Test results as given in patent US20250288682A1, “DEVELOPMENT OF NANO-ENCAPSULATED FATTY-ACYL CONJUGATED COLCHICINE” (priority 2022, published 2025).
Where two headings read alike, the source gives them in different places.

How the values were obtained:
[1] = for behenic acid conjugated colchicine in plasma: rats, 1 mg/kg
Protocol: The route of administration and the PK profile for liposomes colchicine were evaluated. The scaled-up formulation of liposomes colchicine, 15 mL, ghost formulation, non-liposomal behenic acid-conjugated colchicine and free colchicine were evaluated to determine the PK profile of liposomes colchicine, as a function of route of administration, intra-peritoneal injection and oral gavage. This preliminary in vivo study is designed to estimate PK parameters of liposomes colchicine and mode of administration of the liposomes. This study was performed using 10 rats divided into 4 groups as specified in FIG. 14. Rats received colchicine or liposomes-colchicine at 1 mg/kg by intra-peritoneal injection or oral gavage. Two and 24 hours after administration, blood was collected for a quantification of plasmatic colchicine and liposomes by liquid chromatography-mass spectrometry (LC-MS/MS). […] All plasma samples were analyzed for colchicine and colchicine-behenic acid conjugate.
LC/MS samples were prepared as per standard plasma extraction protocol.

[2] = system: HUVEC endothelial cells; conditions: 24 hour stimulation, 0.1 to 10000 nM
Protocol: Cell toxicity was tested on RAW264.7 macrophages and HUVEC endothelial cells. All cells were plated on 96-wells plate (2000 and 8000 cells per well, respectively) and exposed to colchicine or controls three days after (FIGS. 11A and 11B). Cells were exposed to commercialized colchicine (#9754, Sigma-Aldrich), behenic-acid colchicine or liposomal nanoparticles-colchicine (liposomes-colchicine, generated by the nanoSTAR Institute) as well as their respective controls (free media, ethanol/DMSO, ghost liposomes) from 0.1 to 10000 nM. After 24 hours of stimulation, media was removed and replaced with MTT solution (M2128, Sigma-Aldrich) at 0.375 mg/mL for 4 hours at 37° C. Viable cells produced dark blue formazan products. These products were dissolved in an isopropanol/Triton X-100, 10%/HCl solution, and read at 575 nm for absorbance density values to determine the cell viability. The percentage of the viable cells was calculated using the following formula: (%)=[100×(colchicine compound absorbance)/(own control absorbance)].

[3] = system: microtubules, J774 macrophages; conditions: 100 nM, 24 hours
Protocol: (§1) The efficiency of colchicine to bind microtubules and alter their polymerization was evaluated on HUVEC endothelial cells (FIG. 12) and J774 macrophages (FIG. 13). Cells were plated, respectively, at 5000 and 10000 cells/cm2 three days before colchicine stimulation. […] After 24 hours of stimulation, cells were fixed with paraformaldehyde 4% for 10 minutes. Blocking was performed with 10% normal goat serum with 0.2% Triton X-100. The immunocytometry staining used an α/β-tubulin antibody (#2148, Cell Signaling, 1/100, overnight, +4° C.) followed with a goat anti-rabbit antibody Alexa 555 (#A21429, Invitrogen, 1/200, 1 hour, room temperature). DAPI was used for nuclear staining. Pictures at 20× magnification were taken using AxioVision software SE64 4.9.1 (Zeiss).

[4] = system: microtubules, HUVEC endothelial cells; conditions: 100 nM, 24 hours
Protocol: as §1

[5] = cited from earlier work
[6] = system: tubulin; conditions: cited from earlier work
[7] = rats treated with behenic acid conjugated colchicine

**Q.** Which colchifoline in plasma [1, 7] does the source give for `CCCCCCCCCCCCCCCCCCCCCC(=O)OCC(=O)N[C@H]1CCc2cc(OC)c(OC)c(OC)c2-c2ccc(OC)c(=O)cc21` [AI-3-25] here?
**A.** The colchifoline in plasma was “found”.

**Q.** What about the “free colchicine as a metabolite in plasma” value [1, 7] of the same molecule?
**A.** The value was “not found”.

**Q.** What about the “behenic acid conjugated colchicine in plasma” value ([1]; IP, 2 hours) of the same molecule?
**A.** Its value is “presence”.

**Q.** What about the “behenic acid conjugated colchicine in plasma” value ([1]; oral gavage) of the same molecule?
**A.** The value was “diminished levels”.

**Q.** Which “cell viability (MTT)” value [2] does the source give for `COc1cc2c(c(OC)c1OC)-c1ccc(OC)c(=O)cc1[C@@H](NC(C)=O)CC2` [Colchicine, colchicine] here?
**A.** Its value is “decreased cell viability”.

**Q.** And the “microtubule polymerization, cell division and cell shape” value [3]?
**A.** The value was “significantly dysregulated microtubule polymerization, cell division and cell shape”.

**Q.** What about the “microtubule polymerization, cell division and cell shape” value [4] of the same molecule?
**A.** Its value is “significantly dysregulated microtubule polymerization, cell division and cell shape”.

**Q.** What about the “log P” value [5] of the same molecule?
**A.** The value was “about 1.5”.

**Q.** What about the “Biopharmaceutical Classification System class” value ([5]; high solubility and low permeability) of the same molecule?
**A.** The value was “class III”.

**Q.** With `COc1cc2c(c(OC)c1OC)-c1ccc(OC)c(=O)cc1[C@@H](NC(=O)CO)CC2` [colchifoline, N-(2-hydroxyacetyl) colchicine] as the molecule, how does the “tubulin binding compared with colchicine” value [6] read?
**A.** The value was “stronger”.
